Results: ChEMBL document CHEMBL4665913, “Discovery of CA-4948, an Orally Bioavailable IRAK4 Inhibitor for Treatment of Hematologic Malignancies” (ACS Med Chem Lett, 2020)

Key:
in vitro = conditions: human, Caco-2
[1] = Metabolic stability in rat liver microsomes assessed as parent compound remaining at 1 uM measured upto 60 mins in presence of NADPH by LC-MS/MS analysis; type: ADME, Microsome; conditions: read-out: Stabilty
[2] = Metabolic stability in mouse liver microsomes assessed as parent compound remaining at 1 uM measured upto 60 mins in presence of NADPH by LC-MS/MS analysis; type: ADME, Microsome; conditions: read-out: Stabilty
[3] = Metabolic stability in human liver microsomes assessed as parent compound remaining at 1 uM measured upto 60 mins in presence of NADPH by LC-MS/MS analysis; type: ADME, Microsome; conditions: read-out: Stabilty
[4] = AUC (0 to t) in CD-1 mouse at 10 mg/kg, po measured up to 24 hrs by LC-MS/MS analysis; type: ADME, organism-based; design: route oral, dose 10 mg/kg, time <=24; conditions: in vivo
[5] = Clearance in CD1 mouse at 3 mg/kg, iv measured up to 24 hrs by LC-MS/MS analysis; type: ADME, organism-based; conditions: in vivo
[6] = AUC (0 to t) in CD-1 mouse at 3 mg/kg, iv measured up to 24 hrs by LC-MS/MS analysis; type: ADME, organism-based; design: route intravenous, dose 3 mg/kg, time <=24; conditions: in vivo
[7] = Initial plasma concentration in CD1 mouse at 3 mg/kg, iv by LC-MS/MS analysis; type: ADME, organism-based
[8] = Tmax in CD1 mouse at 10 mg/kg, po measured up to 24 hrs by LC-MS/MS analysis; type: ADME, organism-based; conditions: in vivo
[9] = Oral bioavailability in CD1 mouse at 10 mg/kg measured up to 24 hrs by LC-MS/MS analysis; type: ADME, organism-based; conditions: in vivo
[10] = Cmax in CD1 mouse at 10 mg/kg, po measured up to 24 hrs by LC-MS/MS analysis; type: ADME, organism-based; design: route oral, dose 10 mg/kg, time <=24; conditions: in vivo
[11] = Half life in CD1 mouse at 3 mg/kg, iv measured up to 24 hrs by LC-MS/MS analysis; type: ADME, organism-based; conditions: in vivo
[12] = Volume of distribution in CD1 mouse at 3 mg/kg, iv measured up to 24 hrs by LC-MS/MS analysis; type: ADME, organism-based; conditions: in vivo

| Papp A→B at 2 h, 10 µM (in vitro) [×10⁻⁶ cm/s] | remaining at 1 h, 1 µM [1] [%] | remaining at 1 h, 1 µM [2] [%] | remaining at 1 h, 1 µM [3] [%] | AUC(0-t) at 24 h [4] [ng·h/mL] | clearance [5] [mL/min/kg] | AUC(0-t) at 24 h [6] [ng·h/mL] | C0 [7] [ng/mL] | Tmax [8] [min] | bioavailability [9] [%] | Cmax [10] [ng/mL] | half-life [11] [min] | Vd [12] [L/kg] | SMILES |
| --- | --- | --- | --- | --- | --- | --- | --- | --- | --- | --- | --- | --- | --- |
| 15.8 | 91 | 89 | 67 |  |  |  |  |  |  |  |  |  | Cc1cc(-c2nc(C(=O)Nc3cc4oc(N5CCOCC5)nc4nc3N3CCCC(F)C3)co2)ccn1 (stereo unspecified) |
| 54.2 | 95 | 88 | 95 |  |  |  |  |  |  |  |  |  | Cc1cc(-c2nc(C(=O)Nc3cc4oc(N5CCOCC5)nc4nc3N3CC[C@@H](F)C3)co2)ccn1 |
| 21.9 | > 95 | > 95 | > 95 | 4490 | 52.2 | 928 | 788 | 18 | 100 | 2530 | 48 | 5.57 | Cc1cc(-c2nc(C(=O)Nc3cc4oc(N5CCOCC5)nc4nc3N3CC[C@H](O)C3)co2)ccn1 |

Second part, the molecule before the results:

| SMILES | Papp A→B at 2 h, 10 µM (in vitro) [×10⁻⁶ cm/s] | remaining at 1 h, 1 µM [1] [%] | remaining at 1 h, 1 µM [2] [%] | remaining at 1 h, 1 µM [3] [%] | AUC(0-t) at 24 h [4] [ng·h/mL] | clearance [5] [mL/min/kg] | AUC(0-t) at 24 h [6] [ng·h/mL] | C0 [7] [ng/mL] | Tmax [8] [min] | bioavailability [9] [%] | Cmax [10] [ng/mL] | half-life [11] [min] | Vd [12] [L/kg] |
| --- | --- | --- | --- | --- | --- | --- | --- | --- | --- | --- | --- | --- | --- |
| Nc1ccc(-c2cccc(C(=O)Nc3ccc4nc(N5CCOCC5)oc4c3)n2)cn1 | 21.4 |  |  |  |  |  |  |  |  |  |  |  |  |
| Cc1cc(-c2nc(C(=O)Nc3cc4oc(N5CCOCC5)nc4nc3C3CC3)co2)ccn1 | 49.4 | > 95 | 13 | 87 |  |  |  |  |  |  |  |  |  |
